Measurements from US20260318831A1 (University of Cincinnati, priority 2023, published 2026).

How the values were obtained:
Type in all cases: cell-based
[1] = tested on: endolysosomes in HeLa cells; assay: Dynamics of PyQPMe-stained endolysosomes during autophagy
Protocol: FIGS. 6A-6H depict the dynamics of PyQPMe-stained endolysosomes during autophagy. FIG. 6A. Confocal images of HeLa cells incubated with PyQPMe following treatment with or without CCCP for 24 h. FIG. 6B. Quantification of total endolysosomes and late endosomes/lysosomes in PyQPMe-stained HeLa cells with or without CCCP treatment. FIG. 6C. The ratio of the number of late endosomes/lysosomes to total endolysosomes in PyQPMe-stained HeLa cells treated with or without CCCP. FIG. 6D. Quantification of ratio of red to green intensity in PyQPMe-stained HeLa cells without CCCP treatment. FIG. 6E. Quantification of ratio of red to green intensity in PyQPMe-stained HeLa cells with CCCP treatment for 24 h. FIG. 6F. Confocal images of HeLa cells incubated with PyQPMe following treatment with or without rapamycin for 24 h. FIG. 6G. Quantification of total endolysosomes and late endosomes/lysosomes in PyQPMe-stained HeLa cells with or without rapamycin treatment. FIG. 6H. The ratio of the number of late endosomes/lysosomes to total endolysosomes in PyQPMe-stained HeLa cells treated with or without rapamycin. Data are given as M±SEM (n=10 independent samples from 10 cells for each statistical analysis); the statistical differences were analyzed by Student's t-test, p<0.05 is considered to statistical significant (**** p≤0.0001; ns p>0.05).
Autophagy is a natural degradation process of cells that removes unnecessary or damaged biological macromolecules or organelles to maintain homeostasis. After autophagosomes engulf unnecessary components, both late endosomes and lysosomes can fuse with autophagosomes to degrade autophagosomal cargo by forming amphisomes and autolysosomes, respectively. To study the behavior of endolysosomes during autophagy, carbonyl [COMPOUND LEFT OUT] m-chlorophenyl hydrazone (CCCP), a common inducer for mitophagy (one type of autophagy), was exploited to induce autophagy in PyQPMe-stained cells. Cells were treated with 10 μM CCCP for 24 h prior to PyQPMe staining. […] As mentioned above (FIG. 2C), pH 5-6 is the cut-off point for the red to green fluorescence intensity ratio of PyQPMe, which perfectly matches the pH changes during conversion from early endosomes to late endosomes. […] Inversely, when the ratio is greater than 1, it represents the population of late endosomes/lysosomes (FIGS. 3D, 6D, 6E).
Rapamycin, a classical autophagy inducer, activates autophagy by inhibiting mTOR protein activation. To investigate the effect of rapamycin on endolysosomes, we treated HeLa cells with 0.5 μM rapamycin for 24 h prior to PyQPMe staining. […] To track the dynamics of endolysosomes in classical autophagy, the total endolysosomes and late endosomes/lysosomes in rapamycin-treated cells were quantified. […] Meanwhile, similar to the CCCP-induced mitophagy (FIGS. 6A, 6C), the proportion of late endosomes/lysosomes to total endolysosomes remained the same (~54%) during classical autophagy process (FIG. 6H).
(§1) Leica Stellaris 8 Confocal imaging. High-resolution images were acquired on a commercial Leica Stellaris 8 Confocal Microscope under LIGHTNING mode. Laser powers were set at 10% intensity for 405 nm and 640 nm channels. The objective was 63×/1.4. High-resolution images were captured from the randomly selected field of view and analyzed with Leica LAS X and ImageJ software. All the images were exported on the Auto scale of the Leica LAS X software. Cells were seeded on glassed-bottomed cell dishes (MatTek) for 24 hours. Cells stained with PyQPMe (20 nM, 10 min) were treated with Wortmannin (1 μM, 24 h), CCCP ([…], 24 h), rapamycin (0.5 μM, 24 h), chloroquine (25 μM, 30 min), and NH4Cl (50 mM, 30 min). All PCC values were analyzed in the CellProfiler.

HeLa cells [2] = assay: Photobleaching comparison of LTR and PyQPMe; details: continuous confocal laser at 100% power
Excerpt: FIGS. 4A-4G depict the characterization of imaging properties of PyQPMe-stained endolysosomes. FIG. 4A. Confocal image of PyQPMe-stained endolysosomes and fluorescence intensity profile (FIG. 4B) of the write line in FIG. 4A. FIG. 4C. Confocal image of PyQPMe-stained late endosomes/lysosomes and fluorescence intensity profile (FIG. 4D) of the write line in FIG. 4C. FIG. 4E. Confocal images of HeLa cells labeled with LTR and PyQPMe and 3D fluorescence intensity plots of rectangles of integration. FIG. 4F. Continuous imaging of HeLa cells labeled with LTR or PyQPMe at 100% laser intensity for photobleaching, and each scan time was 10 s, images were captured under a red channel. FIG. 4G. Normalized fluorescence intensity of LTR and PyQPMe in FIG. 4F.
Resistance to photobleaching is a crucial property of probes that determines whether they can be used for long-term fluorescence tracking. To characterize this property, a photobleaching comparison study between LTR and PyQPMe was done in HeLa cells (FIG. 4F).
Leica Stellaris 8 Confocal imaging. High-resolution images were acquired on a commercial Leica Stellaris 8 Confocal Microscope under LIGHTNING mode. Laser powers were set at 10% intensity for 405 nm and 640 nm channels. […] High-resolution images were captured from the randomly selected field of view and analyzed with Leica LAS X and ImageJ software. […] All PCC values were analyzed in the CellProfiler.

HeLa cells [3] = assay: Confocal imaging of PyQPMe uptake by endocytosis; details: chloroquine 25 μM, 30 min; NH4Cl 50 mM
Protocol: In some aspects, the probes of the present disclosure can be administered to living cells, either in vitro or in vivo. To take advantage of the absorption and emission spectra of PyQPMe, this probe was administered in high-resolution microscopy for living cells. The toxicity of PyQPMe was examined at first before characterizing its imaging properties. Cell Counting Kit-8 (CCK-8) was used to investigate the viability of HeLa cells stained with PyQPMe. […] Next, PyQPMe was characterized by Leica Stellaris Confocal Microscope in the LIGHTNING module for high-resolution imaging. […] The signal tended to be endolysosomes because endolysosomes have a low pH range from 4.7 to 6.3. […] Since low temperatures can inhibit endocytosis, experiments at a lower temperature were performed.
as §1

[4] = tested on: endolysosomes in HeLa cells; assay: Dynamics of PyQPMe-stained endolysosomes (puncta counting); details: wortmannin 1 μM, 24 h
Protocol: FIGS. 5A-5H depict the characterization of dynamics of PyQPMe-stained endolysosomes. FIG. 5A. Confocal images of HeLa cells stained with PyQPMe following treatment with or without Wortmannin for 24 h. FIG. 5B. Schematic illustration of the effect of Wortmannin which inhibits the conversion from early endosomes into late endosomes. FIG. 5C. Quantification of total endolysosomes and late endosomes/lysosomes in PyQPMe-stained HeLa cells with or without Wortmannin treatment. FIG. 5D. The ratio of the number of late endosomes/lysosomes to total endolysosomes in PyQPMe-stained HeLa cells treated with or without Wortmannin. FIG. 5E. Confocal images of HeLa cells stained with PyQPMe for 10 min and 60 min. FIG. 5F. The mean red puncta fluorescence intensity of PyQPMe-stained HeLa cells for 10 min and 60 min incubation. FIG. 5G. Quantification of total endolysosomes and late endosomes/lysosomes in PyQPMe-stained HeLa cells for 10 min and 60 min. FIG. 5H. The ratio of the number of late endosomes/lysosomes to total endolysosomes in PyQPMe-stained HeLa cells for 10 min and 60 min. Data are given as M±SEM (n=10 independent samples from 10 cells for each statistical analysis); the statistical differences were analyzed by Student's t-test, p<0.05 is considered to statistical significant (** p≤0.01; *** p≤0.001; **** p≤0.0001; ns p>0.05).
Because of the popularity of quantitative cell biology, it is important to design powerful tools that can digitize individual cells and subcellular organelles to elucidate biological problems in detail. With its great pH response, long-term photostability, and excellent signal-to-noise ratio for high-resolution imaging, PyQPMe was successfully used to track the dynamics of endolysosomes within cells by counting the number of puncta fluorescence signals in both green and red channels (FIG. 5A).
Next, the effects of different incubation time on the endocytic pathway were tested.
as §1

SMILES: N#CC(C#N)=NNc1cccc(Cl)c1 [CCCP]
- number of total endolysosomes and late endosomes/lysosomes vs controls ([1]; CCCP 10 μM, 24 h (mitophagy)): significant increase
- ratio of late endosomes/lysosomes to total endolysosomes ([1]; CCCP 10 μM, 24 h, by counting (FIG. 6C)): ~ 55%
- ratio of late endosomes/lysosomes to total endolysosomes from red to green intensity ([1]; CCCP 24 h (FIG. 6E), 52% without CCCP (FIG. 6D)): 56%
- acidity of early and late endosomes ([1]; CCCP, distribution of red to green intensity ratio): both early and late endosomes became more acidic

SMILES: CN(C)CCNC(=O)CCc1ccc2n1[B-](F)(F)[N+]1=C(c3ccc[nH]3)C=CC1=C2 [LTR, reference compound]
- fluorescence intensity on photobleaching (HeLa cells [2]): disappeared rapidly after two scans

SMILES: Cl.N [NH4Cl, reference compound]
- effect of endocytic inhibitor on PyQPMe fluorescence (HeLa cells [3]): significant reduction in fluorescence

SMILES: CCN(CC)CCCC(C)Nc1ccnc2cc(Cl)ccc12 (stereo not drawn) [chloroquine, reference compound]
- effect of endocytic inhibitor on PyQPMe fluorescence (HeLa cells [3]): significant reduction in fluorescence

SMILES: CO[C@H]1C[C@@H]2CC[C@@H](C)[C@@](O)(O2)C(=O)C(=O)N2CCCC[C@H]2C(=O)O[C@H]([C@H](C)C[C@@H]2CC[C@@H](O)[C@H](OC)C2)CC(=O)[C@H](C)/C=C(\C)[C@@H](O)[C@@H](OC)C(=O)[C@H](C)C[C@H](C)/C=C/C=C/C=C/1C [rapamycin]
- fluorescent spots in both green and red channels ([1]; rapamycin 0.5 μM, 24 h): more fluorescent spots
- number of total endolysosomes and late endosomes/lysosomes ([1]; rapamycin 0.5 μM, 24 h): significantly increased
- proportion of late endosomes/lysosomes to total endolysosomes ([1]; rapamycin 0.5 μM, 24 h (FIG. 6H)): ~ 54%

SMILES: COC[C@H]1OC(=O)c2coc3c2[C@@]1(C)C1=C(C3=O)[C@@H]2CCC(=O)[C@@]2(C)C[C@H]1OC(C)=O [wortmannin, reference compound]
- number of endolysosomes vs untreated cells [4]: much higher than that in untreated cells
- percentage of late endosomes/lysosomes in total endolysosomes vs untreated [4]: significantly decreased
